Like-named read-outs stand apart in the source and are kept apart here.
Test system: HCV Huh-luc/neo-ET replicon cells
Experiment: Luciferase-Based HCV Replicon Assay (EC50 (1b))
Assay type: cell-based
Conditions: Hepatitis C virus
Description: Luciferase-Based HCV Replicon Assay Protocol (EC50 (1b))
The cell culture component of the assay is performed essentially as described by Bartenschlager et al., Hepatology 2002, 35, 694-703, wherein exponentially growing HCV Huh-luc/neo-ET replicon cells were seeded at 6×10^3 cells/well in 96 well assay plate. 24 hours later the cells were treated with various concentrations of compound or combination of compounds in triplicate using both fixed ratios and checkerboard matrices of test agents and cultured for 72 hours. The luciferase activity in the wells was determined using Bright-Glo reagent (Promega, Madison, Wis.) with a luminometer (Wallac 1420 Multilabel HTS Counter Victor 2). The background control was replicon cells treated with 100 nM BILN-2061, an inhibitor of the HCV protease. % Inhibition was determined for each compound concentration in relation to the negative (no compound) control to calculate the EC50(1b).

[1] = HCV Huh-luc/neo-ET replicon cells, 72 hours, luciferase activity, read-out: EC50 (1b)
[2] = HCV Huh-luc/neo-ET replicon cells, 72 hours, luciferase activity, read-out: EC50(1b) concentration
[3] = Huh-luc/neo-ET, 72 h, read-out: EC50 (1b)
[4] = Huh-luc/neo-ET, 72 h, read-out: EC50(1b) concentration

Row | SMILES | EC50 [1] | EC50 [2] | EC50 [3] | EC50 [4]
1 | CS(=O)(=O)Nc1ccc2c(c1)S(=O)(=O)NC(C1=C(O)C3C4CC(C5CC54)C3N(Cc3ccc(F)cc3)C1=O)=N2 (racemic) [Example 13, (rac-di-exo,di-exo)-N-{3-[3-(4-Fluoro-benzyl)-6-hydroxy-4-oxo-3-aza-tetracyclo[6.3.1.0^2,7.0^9,11]dodec-5-en-5-yl]-1,1-dioxo-1,2-dihydro-1λ^6-benzo[1,2,4]thiadiazin-7-yl}-methanesulfonamide] | < 5 nM | < 25 nM |  | 
2 | CS(=O)(=O)Nc1ccc2c(c1)S(=O)(=O)N=C(C1=C(O)[C@@H]3[C@H]4CC[C@H](C4)[C@@H]3N(Cc3ccc(F)cc3Cl)C1=O)N2 [Example 1, (1R,2S,7R,8S)—N-{3-[3-(2-Chloro-4-fluoro-benzyl)-6-hydroxy-4-oxo-3-aza-tricyclo[6.2.1.0^2,7]undec-5-en-5-yl]-1,1-dioxo-1,4-dihydro-1λ^6-benzo[1,2,4]thiadiazin-7-yl}-methanesulfonamide] | < 5 nM | < 25 nM |  | 
3 | CS(=O)(=O)Nc1ccc2c(c1)S(=O)(=O)N=C(C1=C(O)C3C4CCC(C4)C3N(Cc3ccc(F)c(Cl)c3)C1=O)N2 [Example 2, N-{3-[(1S,2S,7R,8R)-3-(Chloro-4-fluoro-benzyl)-6-hydroxy-4-oxo-3-aza-tricyclo[6.2.1.0^2,7]undec-5-en-5-yl]-1,1-dioxo-1,4-dihydro-1λ^6-benzo[1,2,4]thiadiazin-7-yl}-methanesulfonamide] |  |  | < 5 nM | < 25 nM
4 | COc1cccc(CN2C(=O)C(C3=NS(=O)(=O)c4cc(NS(C)(=O)=O)ccc4N3)=C(O)[C@@H]3C4CCC(CC4)[C@@H]32)c1 [Example 3, N-{3-[(2S,7R)-6-Hydroxy-3-(3-methoxy-benzyl)-4-oxo-3-aza-tricyclo[6.2.2.0^2,7]dodec-5-en-5-yl]-1,1-dioxo-1,4-dihydro-1λ^6-benzo[1,2,4]thiadiazin-7-yl}-methanesulfonamide] | < 5 nM | < 25 nM |  | 
5 | CS(=O)(=O)Nc1ccc2c(c1)S(=O)(=O)N=C(C1=C(O)[C@@H]3C4CCC(CC4)[C@@H]3N(Cc3ccc(F)cc3F)C1=O)N2 [Example 4, N-{3-[(2S,7R)-3-(2,4-Difluoro-benzyl)-6-hydroxy-4-oxo-3-aza-tricyclo[6.2.2.0^2,7]dodec-5-en-5-yl]-1,1-dioxo-1,4-dihydro-1λ^6-benzo[1,2,4]thiadiazin-7-yl}-methanesulfonamide] | < 5 nM | < 25 nM |  | 
6 | CS(=O)(=O)Nc1ccc2c(c1)S(=O)(=O)N=C(C1=C(O)[C@@H]3C4CCC(CC4)[C@@H]3N(Cc3ccc(F)cc3Cl)C1=O)N2 [Example 5, N-{3-[(2S,7R)-3-(2-Chloro-4-fluoro-benzyl)-6-hydroxy-4-oxo-3-aza-tricyclo[6.2.2.0^2,7]dodec-5-en-5-yl]-1,1-dioxo-1,4-dihydro-1λ^6-benzo[1,2,4]thiadiazin-7-yl}-methanesulfonamide] | 5 to 25 nM | < 25 nM |  | 
7 | CS(=O)(=O)Nc1ccc2c(c1)S(=O)(=O)N=C(C1=C(O)[C@@H]3C4CCC(CC4)[C@@H]3N(Cc3ccccc3Br)C1=O)N2 [Example 6, N-{3-[(2S,7R)-3-(2-Bromo-benzyl)-6-hydroxy-4-oxo-3-aza-tricyclo[6.2.2.0^2,7]dodec-5-en-5-yl]-1,1-dioxo-1,4-dihydro-1λ^6-benzo[1,2,4]thiadiazin-7-yl}-methanesulfonamide] | < 5 nM | < 25 nM |  | 
8 | COc1cc(CN2C(=O)C(C3=NS(=O)(=O)c4cc(NS(C)(=O)=O)ccc4N3)=C(O)[C@@H]3C4CCC(CC4)[C@@H]32)ccc1F [Example 7, N-{3-[(2S,7R)-3-(4-Fluoro-3-methoxy-benzyl)-6-hydroxy-4-oxo-3-aza-tricyclo[6.2.2.0^2,7]dodec-5-en-5-yl]-1,1-dioxo-1,4-dihydro-1λ^6-benzo[1,2,4]thiadiazin-7-yl}-methanesulfonamide] | < 5 nM | < 25 nM |  | 
9 | CS(=O)(=O)Nc1ccc2c(c1)S(=O)(=O)N=C(C1=C(O)[C@@H]3C4CCC(CC4)[C@@H]3N(Cc3ccc(F)c(Cl)c3)C1=O)N2 [Example 8, N-{3-[(2S,7R)-3-(3-Chloro-4-fluoro-benzyl)-6-hydroxy-4-oxo-3-aza-tricyclo[6.2.2.0^2,7]dodec-5-en-5-yl]-1,1-dioxo-1,4-dihydro-1λ^6-benzo[1,2,4]thiadiazin-7-yl}-methanesulfonamide] | < 5 nM | < 25 nM |  | 
10 | CC(C)(C)CCN1C(=O)C(C2=NS(=O)(=O)c3cc(NS(C)(=O)=O)ccc3N2)=C(O)[C@@H]2C3CCC(CC3)[C@@H]21 [Example 9, N-{3-[(2S,7R)-3-(3,3-Dimethyl-butyl)-6-hydroxy-4-oxo-3-aza-tricyclo[6.2.2.0^2,7]dodec-5-en-5-yl]-1,1-dioxo-1,4-dihydro-1λ^6-benzo[1,2,4]thiadiazin-7-yl}-methanesulfonamide] | < 5 nM | < 25 nM |  | 
11 | CS(=O)(=O)Nc1ccc2c(c1)S(=O)(=O)N=C(C1=C(O)[C@@H]3C4CCC(CC4)[C@@H]3N(Cc3ccc(F)c(F)c3)C1=O)N2 [Example 10, N-{3-[(2S,7R)-3-(3,4-Difluoro-benzyl)-6-hydroxy-4-oxo-3-aza-tricyclo[6.2.2.0^2,7]dodec-5-en-5-yl]-1,1-dioxo-1,4-dihydro-1λ^6-benzo[1,2,4]thiadiazin-7-yl}-methanesulfonamide] | < 5 nM | < 25 nM |  | 
12 | Cc1cc(CN2C(=O)C(C3=NS(=O)(=O)c4cc(NS(C)(=O)=O)ccc4N3)=C(O)[C@@H]3C4CCC(CC4)[C@@H]32)ccc1F [Example 11, N-{3-[(2S,7R)-3-(4-Fluoro-3-methyl-benzyl)-6-hydroxy-4-oxo-3-aza-tricyclo[6.2.2.0^2,7]dodec-5-en-5-yl]-1,1-dioxo-1,4-dihydro-1λ^6-benzo[1,2,4]thiadiazin-7-yl}-methanesulfonamide] | < 5 nM | < 25 nM |  | 
13 | CS(=O)(=O)Nc1ccc2c(c1)S(=O)(=O)NC(C1=C(O)[C@@H]3C4CCC(CC4)[C@@H]3N(Cc3ccccc3)C1=O)=N2 [Example 12, N-{3-[(2S,7R)-3-Benzyl-6-hydroxy-4-oxo-3-aza-tricyclo[6.2.2.0^2,7]dodec-5-en-5-yl]-1,1-dioxo-1,2-dihydro-1λ^6-benzo[1,2,4]thiadiazin-7-yl}-methanesulfonamide] | < 5 nM | < 25 nM |  | 
14 | CS(=O)(=O)Nc1ccc2c(c1)S(=O)(=O)NC(C1=C(O)[C@@H]3C4CCC(CC4)[C@@H]3N(Cc3cccc(F)c3)C1=O)=N2 [Example 14, N-{3-[(2S,7R)-3-(3-Fluoro-benzyl)-6-hydroxy-4-oxo-3-aza-tricyclo[6.2.2.0^2,7]dodec-5-en-5-yl]-1,1-dioxo-1,2-dihydro-1λ^6-benzo[1,2,4]thiadiazin-7-yl}-methanesulfonamide] | < 5 nM | < 25 nM |  | 
15 | CS(=O)(=O)Nc1ccc2c(c1)S(=O)(=O)NC(C1=C(O)[C@@H]3C4CCC(CC4)[C@@H]3N(CC3CCCCC3)C1=O)=N2 [Example 15, N-{3-[(2S,7R)-3-Cyclohexylmethyl-6-hydroxy-4-oxo-3-aza-tricyclo[6.2.2.0^2,7]dodec-5-en-5-yl]-1,1-dioxo-1,2-dihydro-1λ^6-benzo[1,2,4]thiadiazin-7-yl}-methanesulfonamide] | 5 to 25 nM | < 25 nM |  | 
16 | CS(=O)(=O)Nc1ccc2c(c1)S(=O)(=O)NC(C1=C(O)[C@@H]3C4CCC(CC4)[C@@H]3N(Cc3cccs3)C1=O)=N2 [Example 16, N-{3-[(2S,7R)-6-Hydroxy-4-oxo-3-thiophen-2-ylmethyl-3-aza-tricyclo[6.2.2.0^2,7]dodec-5-en-5-yl]-1,1-dioxo-1,2-dihydro-1λ^6-benzo[1,2,4]thiadiazin-7-yl}-methanesulfonamide] | 5 to 25 nM | < 25 nM |  | 
17 | Cc1ccccc1CN1C(=O)C(C2=Nc3ccc(NS(C)(=O)=O)cc3S(=O)(=O)N2)=C(O)[C@@H]2C3CCC(CC3)[C@@H]21 [Example 17, N-{3-[(2S,7R)-6-Hydroxy-3-(2-methyl-benzyl)-4-oxo-3-aza-tricyclo[6.2.2.0^2,7]dodec-5-en-5-yl]-1,1-dioxo-1,2-dihydro-1λ^6-benzo[1,2,4]thiadiazin-7-yl}-methanesulfonamide] | 5 to 25 nM | < 25 nM |  | 
18 | CS(=O)(=O)Nc1ccc2c(c1)S(=O)(=O)NC(C1=C(O)[C@@H]3C4CCC(CC4)[C@@H]3N(Cc3ccc(F)c(F)c3F)C1=O)=N2 [Example 18, N-{3-[(2S,7R)-6-Hydroxy-4-oxo-3-(2,3,4-trifluoro-benzyl)-3-aza-tricyclo[6.2.2.0^2,7]dodec-5-en-5-yl]-1,1-dioxo-1,2-dihydro-1λ^6-benzo[1,2,4]thiadiazin-7-yl}-methanesulfonamide] | 5 to 25 nM | < 25 nM |  | 
19 | CS(=O)(=O)Nc1ccc2c(c1)S(=O)(=O)NC(C1=C(O)[C@@H]3[C@@H]4CC[C@@H](C4)[C@@H]3N(Cc3ccccc3)C1=O)=N2 [Example 20] |  |  | 5 to 25 nM | < 25 nM
20 | CS(=O)(=O)Nc1ccc2c(c1)S(=O)(=O)NC(C1=C(O)[C@@H]3[C@H]4CC[C@H](C4)[C@@H]3N(Cc3cccc(F)c3)C1=O)=N2 [Example 21, N-{3-[(1R,2S,7R,8S)-3-(3-Fluoro-benzyl)-6-hydroxy-4-oxo-3-aza-tricyclo[6.2.1.0^2,7]undec-5-en-5-yl]-1,1-dioxo-1,2-dihydro-1λ^6-benzo[1,2,4]thiadiazin-7-yl}-methanesulfonamide] | 5 to 25 nM | < 25 nM |  | 

From patent US8129368B2, “5,6-dihydro-1H-pyridin-2-one compounds” (priority 2008, dated 2012)
